Assay results: publication PMC4725915, “Ruthenium(II) Complexes with 2-Phenylimidazo[4,5-f][1,10]phenanthroline Derivatives that Strongly Combat Cisplatin-Resistant Tumor Cells” (Scientific Reports, 2016)

Tests used:
[1] = test system: HeLa; assay: MTT cytotoxicity assay, HeLa; assay type: cell-based, human; settings: 48 h, mean ± SD of three experiments
Description: (§1) Compounds 1–4 were evaluated against three tumor cell lines derived from different tissues, including the cervix (HeLa), lung (A549) and cisplatin-resistant lung (A549R) tissues. For comparison, the cytotoxicity of cisplatin was also evaluated. As a control, the toxicities of the complexes were also tested against the normal human cell line (LO2).
(§2) The human cervix carcinoma cell line (HeLa), the lung carcinoma cell lines (A549 and A549R), and the human hepatocyte cell line (LO2) were obtained from the Experimental Animal Center at Sun Yat-Sen University (Guangzhou, China). The cells were maintained in Dulbecco’s modified Eagle’s medium (DMEM, Gibco BRL) or Roswell Park Memorial Institute 1640 (RPMI 1640, Gibco BRL) medium supplemented with 10% fetal bovine serum (FBS, Gibco BRL), 100 μg/mL streptomycin, and 100 U/mL penicillin (Gibco BRL) in a humidified incubator under 5% CO2 and 20% O2 at 37 °C. To maintain the resistant phenotype, A549R cells were incubated with 5 μM cisplatin and cultured in drug-free medium for at least a week before use.
(§3) The cytotoxicity of the ruthenium complexes and cisplatin were determined by an MTT assay. Briefly, cells were seeded into 96-well microtiter plates at 1 × 10^4 cells per well and grown overnight at 37 °C in a 5% CO2 incubator; then, different concentrations of the complexes in cell culture medium were added to the cultures. The plates were then incubated in an incubator for 48 h under the same conditions. The stock MTT dye solution (15 μL, 5 mg/mL) was added to each well. After 4 h of incubation, the cultures were removed and 150 μL of DMSO was added to each well. The optical density of each well was measured on a microplate spectrophotometer at a wavelength of 595 nm.

[2] = test system: A549; assay: MTT cytotoxicity assay, A549; assay type: cell-based, human; settings: A549, 48 h, mean ± SD of three experiments
Description: as §1, §2, §3

[3] = Distribution coefficient (log Po/w), flask-shaking, n-octanol/phosphate buffer; assay type: physicochemical; settings: n-octanol / phosphate buffer pH 7.4, 37 °C; in words only (Figure S8)
Description: Distribution coefficients (log Po/w) were determined by liquid-liquid extraction between n-octanol (oil) and phosphate buffers (0.2 M, pH 7.4) with the flask-shaking method. N-Octanol and the buffer were mutually saturated with each other for at least 24 h before use. An aliquot of a ruthenium complex stock solution was added to the phosphate buffer concentrations at <10 mg/mL, and the mixture was shaken at 100 rpm for 24 h at 37 °C to allow for adequate partitioning. After the sample was centrifuged at 3000 rpm for 20 min, the aqueous layer was used for ruthenium analysis, and the Ru content in the aqueous layer was measured by ICP-MS and used to calculate the log Po/w.

[4] = test system: A549R cells; assay: Cell uptake study by ICP-MS; assay type: cell-based, human; settings: A549R, 2.0 μM, 12 h
Description: To understand the high sensitivity of cancer cells to Ru(II) complexes, the extent of cellular uptake was investigated with inductively coupled plasma mass spectrometry (ICP-MS) by treating the HeLa, A549, A549R and LO2 cell lines with 2.0 μM concentrations of the Ru(II) complexes and cisplatin for 12 h. […] In this study, the cellular uptake and lipophilicity were distinctly correlated and followed the order: 4 >3 >2 >1. Complex 4 had the best accumulation, but the amount of Ru in LO2 cells was far less than that in the three cancer lines, indicating selective accumulation and improved efficiency for treating cancer. Cisplatin was taken up more efficiently by the sensitive cell line (A549) than by the cisplatin-resistant cell line (A549R). […] However, less than 1.5% of the cellular platinum was accumulated in the mitochondrial fraction of the A549R cells. Therefore, complex 4 could function in a different manner than cisplatin in A549R cells, which would be an appropriate solution to combat cisplatin resistance in tumor cells.
The cells were plated at a density of 1 × 10^5 cells/mL in 10 mL of DMEM for 24 h at 37 °C under 5% CO2 and 20% O2, Ruthenium complexes (2.0 μM) and cisplatin were added to the culture medium and incubated for 12 h, and mixed with cold PBS and a trypsin-EDTA solution in a centrifuge tube for counting. Then, the nuclei and cytoplasm of the cells were extracted by using a Nuclear and Cytoplasmic Protein Extraction Kit (Life Technologies). The samples were digested in 20% HNO3 and 10% H2O2 at room temperature overnight. Each sample was then diluted with Milli-Q water to obtain 2% HNO3 sample solutions. Ruthenium contents were determined using inductively coupled plasma mass spectrometry (ICP-MS Thermo Elemental Co., Ltd.).

[5] = test system: TrxR; assay: TrxR activity assay in A549R cells (DTNB reduction); assay type: cell-based, human; settings: 4.0 μM, 12 h
Excerpt: The elevated levels of TrxR in cancers, especially in non-small cell lung cancers, are responsible for drug resistance. The thioredoxin system has a significant influence on intracellular physiological processes, such as antioxidant defense, cell functions, cell apoptosis and cell proliferation. TrxR has previously been identified as a drug target. […] In addition, the expression levels of TrxR in A549R cells in response to the addition of complex 4 were also examined by Western blot analysis.
A549R cells (2 × 10^6 cells) treated or untreated with complex 4 for 12 h were homogenized in 100–200 μl of cold assay buffer on ice and a protease inhibitor cocktail was added to the sample; the sample was then centrifuged at 10,000 x g for 15 min at 4 °C. The supernatant was collected for the assay and stored on ice. The protein concentration of each supernatant was determined using the Bradford reagent. A total of 40 μl of the reaction mix (30 μl assay buffer, 8 μl 5, 5′-dithiobis (2-nitrobenzoic) acid (DTNB) solution and 2 μl NADPH) was added to each sample and incubated at 25 °C for 20 min. TrxR catalyzes the reduction of DTNB by NADPH to 5-thio-2-nitrobenzoic acid (TNB2), which generates a strong yellow color (λmax = 412 nm); consequently, the amount of […] was used to monitor the change in absorbance at 412 nm. […]

Ru(phen)(bzq)(tbtfpip)(PF6) [Complex 4]
IC50 [1]: 2.4 ± 0.3 µM
IC50 [2]: 1 ± 0.2 µM
log Po/w [3]: largest
share of the compound taken up by A549R cells [4]: Approximately 8%
decline of intracellular TrxR activity [5]: approximately 45%
